Key:
psychosis = conditions: cited from earlier work
[1] = test system: black/white exploration test in rats; conditions: cited from earlier work
sigma2 = conditions: cited from earlier work
[2] = test system: chronic mild stress induced anhedonia in rats; experiment: chronic mild stress induced anhedonia in rats (sucrose consumption); type: in vivo, Male Wistar rats
Description: The model of chronic mild stress induced anhedonia in rats. […] This model is based on the observation that chronic mild stress causes a gradual decrease in sensitivity to rewards, for example consumption of sucrose, and that this decrease is dose-dependently reversed by chronic treatment with antidepressants. The method has previously been described and more information with respect to the test appears from Willner, Paul, Psycopharmacology, 1997, 134, 319-329. Male Wistar rats were trained to consume a 1% sucrose solution by nine 1-hour baseline tests in which sucrose was presented in the home cage following 14 h food and water deprivation. One group of animals was subjected to a chronic mild stress procedure for a period of 9 consecutive weeks. Each week of the stress regime consisted of two periods of food and water deprivation, two periods of 45-degree cage tilt, two periods of intermittent illumination (light on and off every 2 h), two periods of soiled cage (250 ml water saw dust bedding), two periods of paired housing, two periods of low stroboscobic illumination (150 flashes/min) and two periods of no stress. All stress periods were of 12-14 hours duration and followed continuously, day and night. Control animals were housed in separate rooms with food and water freely available except for a 14-h period preceding each sucrose test, and they had no contact with stressed animals. Stressed animals as well as control animals were divided into matched subgroups, and for subsequent five weeks they received daily intraperitoneal injections (1 ml/kg body weight) of vehicle (minimum amount of propylene glycol and methane sulfonic acid (1:1) diluted with water) or test compound. Sucrose tests were carried out 24 hours following to last drug treatment.

Compound | clinical effect in the treatment of psychosis (psychosis) | anxiolytic activity in the black/white exploration test [1] | sigma ligand potency and selectivity (sigma2) | consumption of sucrose in the control animals ([2]; non-stressed control rats, daily i.p. for five weeks) | sucrose intake in stressed animals versus initial scores ([2]; stressed rats, 1.0 mg/kg daily i.p.) | reversal of chronic mild stress induced deficit in sucrose intake ([2]; stressed rats, 1.0 mg/kg daily i.p. for five weeks)
C[C@@H]1CN(CCCn2c3ccccc3c3ccccc32)C[C@H](C)N1 [rimcazole] | clinically shows effect in the treatment of psychosis |  |  |  |  | 
Fc1ccc(-n2cc(CCCCN3CCC4(CC3)OCc3ccccc34)c3ccccc32)cc1 [compound of the invention, 1′-[4-[1-(4-fluorophenyl)-1H-indole-3-yl]-1-butyl]-spiro[isobenzofuran-1(3H),4′-piperidine]] |  | active over a large dose range | potent and selective sigma ligand, in particular a sigma2 ligand | did not significantly affect | significantly increased from initial scores after three, four and five weeks | able to reverse
